Data taken from patent US10059667B2, “Antidiabetic compounds” (MERCK SHARP & DOHME CORP., priority 2014, dated 2018).

Tests used:
Format in all cases: cell-based
[1] = target: T1, Human GPR40 (Homo sapiens (Human), UniProt O14842); test: Inositol Phosphate Turnover (IP1) Assay 2, HEK cells stably expressing human GPR40, CisBio IP-One kit; conditions: HEK cells stably expressing human GPR40, 384-well
Method: (§1) Human and mouse GPR40 stable cell-lines were generated in CHO cells stably expressing NFAT BLA (Beta-lactamase). A human GPR40 stable cell-line was generated in HEK cells stably expressing the aequorin expressing reporter. The expression plasmids were transfected using lipofectamine (Life Technologies) following manufacturer's instructions. Stable cell-lines were generated following drug selection.
The assay was performed in 384-well format. HEK cells stably expressing human GPR40 were plated at 15,000 cells per well in growth medium (DMEM/10% fetal calf serum). Cell plates were then incubated 16 hours at 37 degrees in a 5% CO2 incubator.
Measurement of Inositol Phosphate Turnover (IP1) was performed using the CisBio IP-One kit (Part number 62IPAPEB). After the 16 hour incubation, the cells were washed with HEPES buffer and 10 ul of stimulation buffer (prepared as described in the kit) was added to each well. In a separate plate, compounds were diluted in DMSO (400-fold over the final concentration in the assay well) and 25 nl was acoustically transferred to the appropriate well in the assay cell plate.
The plates were then incubated for 60 minutes at 37 degrees. 10 ul of detection buffer (also prepared as described in the IP-One kit) was added to each well and the plates were incubated for 60 minutes in the dark. The plates were then read in a Perkin Elmer EnVision or equivalent reader able to measure FRET. Fluorescent ratio of emission at 665 and 620 nm was then converted to IP1 concentration by back calculating from an IP1 standard curve prepared at the time of the assay.

[2] = target: T1, Human GPR40; test: FLIPR assay, agonist-induced calcium mobilization in GPR40/CHO NFAT BLA cells
Method: as §1
FLIPR (Fluorimetric Imaging Plate Reader, Molecular Devices) assays were performed to measure agonist-induced calcium mobilization of the stable clones. For the FLIPR assay, one day before assay, GPR40/CHO NFAT BLA cells were seeded into black-wall-clear-bottom 384-well plates (Costar) at 1.4×10e4 cells/20 μL medium/well. The cells were incubated with 20 μl/well of the assay buffer (HBSS, 0.1% BSA, 20 mM HEPES, 2.5 mM probenecid, pH 7.4) containing 8 μM fluo-4, AM, 0.08% pluronic acid at room temperature for 100 minutes. Fluorescence output was measured using FLIPR. Compounds were dissolved in DMSO and diluted to desired concentrations with assay buffer. 13.3 μL/well of compound solution was added.

[3] = target: T1, Human GPR40; test: Inositol Phosphate Turnover (IP1) Assay 1, HEK cells stably expressing human GPR40, 3H-inositol SPA; conditions: HEK cells stably expressing human GPR40, 96-well
How it was run: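 HEK cells stably expressing human GPR40, labelled 18 h with 3H-myo-inositol in inositol-free medium with 0.4% human or mouse albumin. LiCl added 20 min at 37 degrees, then compound 60 min at 37 degrees; formic acid lysates counted by YSi SPA beads for inositol phosphates.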

T1 sequence (O14842 whole entry): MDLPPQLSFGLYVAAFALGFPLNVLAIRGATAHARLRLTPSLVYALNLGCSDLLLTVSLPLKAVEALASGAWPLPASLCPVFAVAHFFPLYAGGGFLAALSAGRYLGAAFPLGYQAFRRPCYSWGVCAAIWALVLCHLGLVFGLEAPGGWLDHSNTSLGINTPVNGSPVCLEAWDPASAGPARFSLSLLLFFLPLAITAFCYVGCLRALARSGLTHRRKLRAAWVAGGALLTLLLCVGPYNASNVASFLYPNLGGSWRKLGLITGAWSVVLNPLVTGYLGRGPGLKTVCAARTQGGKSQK

SMILES	EC50 [1] [nM]	EC50 [2] [nM]	EC50 [3] [nM]
COc1cc(C2CC(COc3cccc([C@H](C4CC4)[C@H](C)C(=O)O)c3)C2)c(F)cn1 (single isomer, unassigned) [Example 90]	96	–	–
COc1cc(C2CC(COc3cccc([C@H](C4CC4)[C@H](C)C(=O)O)c3)C2)c(F)cn1 (single isomer, unassigned) [Example 91]	7.4	–	–
CC1(COc2cccc([C@@H](CC(=O)O)C3CC3)c2)CCN(Cc2cc(C(F)(F)F)ccc2C(F)(F)F)C1 (stereo partly shown) [Example 43]	–	231	952
O=C(O)C[C@H](c1cccc(OCC2CCN(Cc3cc(C(F)(F)F)ccc3C(F)(F)F)C2)c1)C1CC1 (stereo partly shown) [Example 47]	–	42	560
O=C(O)C[C@H](c1cccc(OC2CCN(Cc3cc(C(F)(F)F)ccc3C(F)(F)F)CC2)c1)C1CC1 [Example 48]	–	142	1020
O=C(O)C[C@H](c1cccc(OCC2CN(Cc3cc(C(F)(F)F)ccc3C(F)(F)F)C2)c1)C1CC1 [Example 49]	–	8.3	251
O=C(O)C[C@H](c1cccc(OCC2CN(Cc3ccccc3OC(F)(F)F)C2)c1)C1CC1 [Example 50]	–	55	5030
CC(c1cc(F)ccc1Cl)N1CC(COc2cccc([C@@H](CC(=O)O)C3CC3)c2)C1 (stereo partly shown) [Example 51]	–	58	449
CC(c1ccccc1Cl)N1CC(COc2cccc([C@@H](CC(=O)O)C3CC3)c2)C1 (stereo partly shown) [Example 52]	–	162	5640
O=C(O)C[C@H](c1cccc(OCC2CN(Cc3c(F)cccc3C(F)(F)F)C2)c1)C1CC1 [Example 53]	–	389	4570
CC(c1cc(C(F)(F)F)ccc1C(F)(F)F)N1CC(COc2cccc([C@@H](CC(=O)O)C3CC3)c2)C1 (stereo partly shown) [Example 54]	–	0.6	27
CC(c1ccccc1C(F)(F)F)N1CC(COc2cccc([C@@H](CC(=O)O)C3CC3)c2)C1 (stereo partly shown) [Example 55]	–	7.3	904
CC(c1cc(Cl)ccc1Cl)N1CC(COc2cccc([C@@H](CC(=O)O)C3CC3)c2)C1 (stereo partly shown) [Example 56]	–	23	347
CC(c1cc(C(F)(F)F)ccc1C1CC1)N1CC(COc2cccc([C@@H](CC(=O)O)C3CC3)c2)C1 (stereo partly shown) [Example 58]	–	113	366
Cc1ccc(C(F)(F)F)cc1C(C)N1CC(COc2cccc([C@@H](CC(=O)O)C3CC3)c2)C1 (stereo partly shown) [Example 59]	–	439	777
CC(c1cc(C(F)(F)F)ccc1Cl)N1CC(COc2cccc([C@@H](CC(=O)O)C3CC3)c2)C1 (stereo partly shown) [Example 60]	–	184	527
COc1cccc(C2CC2COc2cccc([C@@H](CC(=O)O)C3CC3)c2)c1 (stereo partly shown) [Example 61, (3 S)-3-cyclopropyl-3-(3-((2-(3-methoxyphenyl)cyclopropyl)methoxy)phenyl)propanoic acid]	–	24	651
COc1cc(C2CC(COc3cccc([C@H](C4CC4)[C@H](C)C(=O)O)c3)C2)c(F)cn1 (stereo partly shown) [Example 87]	13	–	23
